Where two headings read alike, the source gives them in different places.
Legend:
[1] = system: T1, Plasmodium falciparum Dd2-attB (parental line), asexual blood stages; assay: microbe, parasite or virus in culture; set-up: species or system P. falciparum Dd2-attB in human erythrocytes; SYBR Green-I proliferation assay, Dd2-attB parental line, asexual blood stages; conditions: Plasmodium falciparum, DD2, Erythrocyte, 72 h, read-out: Calculated / Average Log AC50 (M), mean of replicates, 72 h (converted)
T1 construct: Dd2-attB, the isogenic parental line

[2] = system: luciferase-expressing P. berghei liver stage parasites in HepG2 cells; assay: Inhibition of liver-stage development assay (ILSDA), Method 2 (WRAIR, 96-well); assay type: cell-based, Plasmodium berghei; conditions: for AC50: Plasmodium berghei, HepG2, Method 2; for Activity direction (Decrease / Inactive): P. berghei liver stage, Method 2, dose response
[3] = system: Plasmodium falciparum Dd2 asexual blood stage parasites; assay: microbe, parasite or virus in culture; set-up: species or system Plasmodium falciparum Dd2 in human erythrocytes; single determination (one 11-point concentration-response curve); conditions: Plasmodium falciparum, DD2, Erythrocyte, 72 h; read-out: AC50
in vitro [4] = conditions: human, n = 1
[5] = system: P. berghei-ANKA-GFP-LucCON liver stage parasites in HepG2-A16-CD81EGFP cells; assay: P. berghei liver stage Pb-Luc assay, Method 1 (UCSD, 1536-well); on Pb-Luc signal, 1 uM, repeat 1: reference of the scale not given here; on Pb-Luc signal, 1 uM, repeat 2: reference of the scale not given here; on Pb-Luc signal, 1 uM, repeat 3: reference of the scale not given here; on Pb-Luc signal, 3 uM, repeat 1: reference of the scale not given here; on Pb-Luc signal, 3 uM, repeat 2: reference of the scale not given here; on Pb-Luc signal, 3 uM, repeat 3: reference of the scale not given here; assay type: cell-based, Plasmodium berghei; conditions: for activity at 1 µM / activity at 3 µM: 48 h, average of 2 wells, 1536-well plate; for activity at 1 µM: nominal 1 uM (10 mM stock), […] for 15 mM, 1.2 uM for 12 mM, 2 uM for 20 mM stock; for activity at 3 µM: nominal 3 uM (10 mM stock), 4.5 uM for 15 mM, 3.6 uM for 12 mM, 6 uM for 20 mM stock; for Max Resp (signal direction of the dose response): Decrease = decreasing P. berghei viability with dose, Increase = increasing signal, Inactive = no dose response
HepG2-A16-CD81EGFP cells = conditions: average of 2 wells; for HepG2 viability signal, 3 uM, repeat 2: nominal 3 uM (10 mM stock), 4.5 uM for 15 mM, 3.6 uM for 12 mM, 6 uM for 20 mM stock
in vitro [6] = conditions: human, HepG2-A16-CD81EGFP cells, uninfected
[7] = Plasmodium berghei, repeat 1, read-out: Pb-Luc signal, 1 uM, repeat 1
[8] = Plasmodium berghei, repeat 2, read-out: Pb-Luc signal, 1 uM, repeat 2
[9] = Plasmodium berghei, repeat 3, read-out: Pb-Luc signal, 1 uM, repeat 3
[10] = Plasmodium berghei, repeat 1, read-out: Pb-Luc signal, 3 uM, repeat 1
[11] = Plasmodium berghei, repeat 2, read-out: Pb-Luc signal, 3 uM, repeat 2
[12] = Plasmodium berghei, repeat 3, read-out: Pb-Luc signal, 3 uM, repeat 3
[13] = Plasmodium berghei, Method 1, Hill fit, 50% of maximum activity response, read-out: AC50
[14] = Plasmodium berghei, Method 1, log10 of molar AC50 from Hill fit, read-out: Log AC50 (converted)
[15] = nominal 1 uM (10 mM stock), […] for 15 mM, 1.2 uM for 12 mM, 2 uM for 20 mM stock

Row | SMILES | AC50 [1] | AC50 [3] | activity at 1 µM [5, 7] | activity at 1 µM [5, 8] | activity at 1 µM [5, 9] | activity at 3 µM [5, 10] | activity at 3 µM [5, 11] | activity at 3 µM [5, 12] | HepG2 viability signal, 1 uM, repeat 2 (HepG2-A16-CD81EGFP cells; [15]) | HepG2 viability signal, 3 uM, repeat 2 (HepG2-A16-CD81EGFP cells) | also measured
1 | CN(C)CCCNC(=O)c1ccc(-c2cnc3c(O)ccc(C(=O)O)c3c2)cc1 [NCGC00189503-01] | 1.93e-05 M |  |  |  |  |  |  |  |  |  | 
2 | O=C(O)c1ccc(O)c2ncc(N3CCCCC3)cc12 [NCGC00241752-01] | 1.65e-05 M |  |  |  |  |  |  |  |  |  | 
3 | O=C(O)c1ccc(O)c2ncc(-c3cccc(N4CCOCC4)c3)cc12 [NCGC00241753-01] | 2.16e-05 M |  |  |  |  |  |  |  |  |  | 
4 | O=C(O)c1ccc(O)c2ncc(N3CC(N4CCOCC4)C3)cc12 [NCGC00241761-01] | 1.72e-05 M |  |  |  |  |  |  |  |  |  | 
5 | O=C(O)c1ccc(O)c2ncc(-c3n[nH]nc3-c3ccccc3)cc12 [NCGC00241764-02] | 4.66e-06 M |  |  |  |  |  |  |  |  |  | 
6 | O=C(O)c1ccnc2c(O)cc(N3CCOCC3)cc12 [NCGC00247744-02] | 1.5e-07 M |  |  |  |  |  |  |  |  |  | 
7 | CN1CCC(N2CCCC(CNC(=O)c3cccc(-c4cc(O)c5ncccc5c4)c3)C2)CC1 (centres unmarked) [NCGC00247748-01] | 1.85e-05 M |  |  |  |  |  |  |  |  |  | 
8 | CN(C)CCCNC(=O)c1ccccc1-c1cc(O)c2ncccc2c1 [NCGC00247753-01] | 1.47e-05 M |  |  |  |  |  |  |  |  |  | 
9 | CC1=C[C@@H](CNCc2cccnc2)[C@H](C(C)C)C[C@H]1Cc1nnc(-c2ccc([N+](=O)[O-])cc2)o1 [NCGC00394797-01] |  | 5310 nM | 72% | 75% | 71.6% | 23.8% | 19.3% | 23.7% | 102.23% | 86.98% | Max Resp (signal direction of the dose response) ([2]; Method 2, Decrease = decreasing P. berghei viability with dose, Increase = increasing signal, Inactive = no dose response): Decrease; AC50 ([2]; Hill fit, 50% of maximum activity response, read-out: AC50): 562 nM; AC50 ([2]; log10 of molar AC50 from Hill fit, read-out: Log AC50 (converted)): 562 nM; CC50 at 48 h (in vitro [4]; hepg2): 24300 nM; AC50 [5, 13]: 1580 nM; AC50 [5, 14]: 1580 nM; HepG2 viability signal, 1 uM, repeat 1 (HepG2-A16-CD81EGFP cells; nominal 1 uM (10 mM stock), […] for 15 mM, 1.2 uM for 12 mM, 2 uM for 20 mM stock, repeat 1): 104.31%
10 | CC(C)c1ccc(CC(=O)N2CCCc3ncc(C(=O)Nc4cccnc4)cc32)cc1 [NCGC00420003-01] |  | 863 nM | 24.7% | 4.89% | 35.4% | 3.66% | 2.01% | 4.19% | 94.19% | 54.54% | Activity direction (Decrease / Inactive) [2]: Inactive; viability at 48 h, 1 µM (in vitro [6]): 99%; viability at 48 h, 3 µM (in vitro [6]): 35.6%; CC50 at 48 h (in vitro [4]; HepG2 cells): 19800 nM; Max Resp (signal direction of the dose response) ([5]; Method 1): Inactive
11 | Cc1nn2c(c1-c1ccccc1-c1ccccc1)N(CC1CC1)CCC2 [NCGC00420435-01] |  | 968 nM | 52.9% | 51.5% | 66.1% | 2.42% | 7.19% | 5.92% | 101.46% | 45.92% | Activity direction (Decrease / Inactive) [2]: Inactive; viability at 48 h, 1 µM (in vitro [6]): 102%; viability at 48 h, 3 µM (in vitro [6]): 53.6%; CC50 at 48 h (in vitro [4]; HepG2 cells): 22200 nM; AC50 [5, 13]: 1580 nM; AC50 [5, 14]: 1580 nM
12 | Cc1nn2c(c1-c1ccccc1-c1ccccc1)N(CCC(C)C)CCC2 [NCGC00420437-01] |  | 243 nM | 19.7% | 20.4% | 5.15% | 4.48% | 7.19% | 3.33% | 106.23% | 19.77% | Activity direction (Decrease / Inactive) [2]: Inactive; viability at 48 h, 1 µM (in vitro [6]): 104%; viability at 48 h, 3 µM (in vitro [6]): 10.8%; CC50 at 48 h (in vitro [4]; HepG2 cells): 19800 nM; Max Resp (signal direction of the dose response) ([5]; Method 1): Decrease; AC50 ([5]; Method 1, Hill fit, 50% of maximum activity response, read-out: AC50): 1120 nM; Log AC50 (M) ([5]; Method 1, log10 of molar AC50 from Hill fit): -5.950 M; AC50 [5, 13]: 1000 nM; AC50 [5, 14]: 1000 nM
